Source: patent US12617790B2, “Mitragynine analogs and uses thereof” (Memorial Sloan-Kettering Cancer Center, priority 2015, dated 2026)
pEC50, pIC50, pKi: −log10 of the molar value.

Columns and labels:
mice [1] = test: Conditioned place preference / aversion; conditions: VM1502 1.3 and 3.2 mg/kg/d, 2 days conditioning
CD1 mice [2] = test: Respiratory depression assessment (MouseOx pulse oximeter breath rate)
mice [3] = test: Physical dependence, naloxone-precipitated jumping; conditions: VM1502 2x daily 2x ED50, challenge on days 5, 22, 29; 15 min count
MOR-1 [4] = molecular target: T1, MOR-1 (Mus musculus, UniProt P42866); test: [35S]GTPγS functional assay, MOR-1 transfected cell membranes; format: biochemical
T1 construct: expressed in transfected cells; host or cells: CHO

CD1 male mice [5] = test: Tolerance study, chronic twice daily dosing, tail flick; conditions: for ED50: Mus musculus, sc
CD1 mice [6] = test: Radiant heat tail flick analgesia, sc, CD1 mice; format: in vivo; conditions: Mus musculus, 0.25 h, ED50, cumulative dose-response, tail flick 15 min after sc dose
mice [7] = test: Gastrointestinal motility assay (charcoal meal transit); conditions: FIG. 12C: VM1502 1.5 and 4 mg/kg, 30 min
rats = test: Tail flick analgesia, sc, rats; format: in vivo; conditions: Rattus norvegicus, 0.25 h, rats (n=3), 15 mins, cumulative dosing
KOR-1 [8] = molecular target: T2, KOR-1 (Mus musculus, UniProt P33534); test: Competition binding against 125I-IBNtxA in KOR-1/CHO membranes
T2 construct: expressed in transfected cells; host or cells: CHO

MOR-1 [9] = molecular target: T1, MOR-1; test: Competition binding against 125I-IBNtxA in MOR-1/CHO membranes
KOR-1 [10] = molecular target: T2, KOR-1; test: [35S]GTPγS functional assay, KOR-1 transfected cell membranes; format: biochemical
DOR-1 [11] = molecular target: T3, DOR-1 (Mus musculus, UniProt P32300); test: [35S]GTPγS functional assay, DOR-1 transfected cell membranes; format: biochemical
T3 construct: expressed in transfected cells; host or cells: CHO

CD1 mice [12] = test: Radiant heat tail flick analgesia, icv, CD1 mice; format: in vivo, mouse; conditions: ED50, cumulative dose-response, tail flick 15 min after icv dose
CD1 mice [13] = test: Reversal of tail flick antinociception by selective opioid antagonists, CD1 mice; format: in vivo, mouse; conditions: VM1501 1.0 mg/kg sc, VM1502 1.5 mg/kg sc
DOR-1 [14] = molecular target: T3, DOR-1; test: Competition binding against 125I-IBNtxA in DOR-1/CHO membranes
mice [15] = test: Antisense oligodeoxynucleotide downregulation, tail flick antinociception; format: in vivo, mouse; conditions: antisense icv days 1, 3, 5, test day 6; VM1501 1.0 mg/kg sc, VM1502 1.5 mg/kg sc
CD1 male mice [16] = test: Tail flick antinociception, oral by gavage, CD1 male mice; format: in vivo; conditions: Mus musculus, orally by gavage

CC[C@@H]1CN2CC[C@]3(Nc4cccc(OC)c4C3=O)C2C[C@@H]1/C(=C\OC)C(=O)OC (stereo partly drawn) [VM1502, (E)-methyl 2-((1'S,6'S,7'S)-6′-ethyl-4-methoxy-3-oxo-3′,5′,6′,7′,8′,8a′-hexahydro-2′H-spiro[indoline-2,1′-indolizine]-7′-yl)-3-methoxyacrylate]
conditioned place preference or aversion (mice [1]): did not produce conditioned place preference or aversion | respiratory rate (CD1 mice [2]; FIG. 12D, 2x antinociceptive ED50: VM1502 1.2 mg/kg sc, morphine 5 mg/kg): did not depress respiratory rate | respiratory rate (CD1 mice [2]; FIG. 12D, 5x antinociceptive ED50: VM1502 3 mg/kg sc, morphine 10 mg/kg): showed signs of respiratory depression albeit significantly less than the equianalgesic dose of morphine | respiratory rate (CD1 mice [2]; FIG. 14, 5x antinociceptive ED50: VM1502 3.75 mg/kg sc, VM1512 5.0 mg/kg sc, morphine 10 mg/kg): showed signs of respiratory depression albeit significantly less than the equianalgesic dose of morphine | physical dependence: number of jumps after naloxone (1 mg/kg) (mice [3]): not significantly greater than that of mice treated with saline | pEC50 (MOR-1 [4]): 8.77 | ED50 (CD1 male mice [5]; 0 h, read-out: analgesic ED50, naïve (day 0)): 0.63 mg/kg | ED50 (CD1 male mice [5]; 120 h, read-out: analgesic ED50, day 5): 1.1 mg/kg | ED50 (CD1 male mice [5]; 288 h, read-out: analgesic ED50, day 12): 1.8 mg/kg | ED50 (CD1 male mice [5]; 528 h, read-out: analgesic ED50, day 22): 2 mg/kg | ED50 (CD1 male mice [5]; 696 h, read-out: analgesic ED50, day 29): 4.5 mg/kg | onset of analgesic tolerance (CD1 male mice [5]; dosed 2x daily with 2x antinociceptive ED50): very slow onset of tolerance compared with morphine | ED50 (CD1 mice [6]): 0.76 mg/kg | gastrointestinal transit (mice [7]): lowered transit significantly compared with saline (P<0.05) but less than morphine at both doses | ED50 (rats): 1.4 mg/kg | pKi (KOR-1 [8]): 7.62 | pKi (MOR-1 [9]): 9.10 | pIC50 (KOR-1 [10]): 7.51 | pIC50 (DOR-1 [11]): 7.21 | Analgesia icv (CD1 mice [12]): 0.38 µg | antinociception after NTI (0.5 mg/kg sc) and norBNI (10 mg/kg sc) (CD1 mice [13]): insensitive to NTI and norBNI | antinociception after β-FNA (40 mg/kg sc) (CD1 mice [13]): antagonized by β-FNA | pKi (DOR-1 [14]): 8.52 | analgesic response after antisense downregulation (mice [15]): only affected in MOR-1-downregulated mice | ED50 (CD1 male mice [16]): 7.5 mg/kg
